Molecules are shown by their SMILES. Activity calls are given as the source filed them.

Assay [1] has as its system BJ. The assay is described as follows: BJ-TERT fibroblast viability loss – cell-based, RAS-independent, luminescence, dose response (AID 1933). The settings on record: Homo sapiens. Format: functional.
The target in another assay is Large T antigen (Simian virus 40, UniProt P03070). Format: functional, Betapolyomavirus macacae.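 Note: Confirmatory-stage PubChem screen for compounds that inhibit SV40 T antigen.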
Assay [2] in a line: Luminescence Cell-Based Dose Response HTS to Identify Inhibitors of 5'UTR Stem-Loop Driven Prion Protein mRNA Translation in H4 Neuroglioblastoma Cells. [Related pubchem assays: 1827 (Project Summary), 1813 (Primary HTS)]. Format: functional.
Assay [3] in a line: HEK-293T viability loss after treatment – luminescence, T-cell screen hits, cytotoxicity control for TCR NF-kB inhibitor project, dose response (AID 489026).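 Note: cells exposed to compound about 14 hours before the viability readout.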 Format: functional, cell-based.
The next assay deals with Streptococcus. The assay is described as follows: GAS UMAA2166 growth inhibition – luminescence, BacTiterGlo, counter-screen for streptokinase expression inhibitor project, dose response (AID 1915).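 Note: potency for reduction of bacterial viability or growth.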 In kind it is functional, organism-based.
A short description of assay [4]: DRD fibroblast viability loss – cell-based, non-viral oncogenic, luminescence, dose response (AID 1934). Format: functional. To be noted: Homo sapiens.
Assay [5] in a line: alpha-synuclein stem-loop luciferase translation blockers – H4 neuroglioma cells, luminescence, confirmation (AID 1988). Format: functional, cell-based.
In assay [6] the target is Glucose-6-phosphate 1-dehydrogenase (Homo sapiens, UniProt P11413). The assay is described as follows: inhibition of Homo sapiens G6PD, dose series – biochemical, fluorescence, selectivity assay for P. falciparum G6PD inhibitor project, dose response (AID 504792). In kind it is functional.
Glucose-6-phosphate 1-dehydrogenase, sequence (P11413 whole entry): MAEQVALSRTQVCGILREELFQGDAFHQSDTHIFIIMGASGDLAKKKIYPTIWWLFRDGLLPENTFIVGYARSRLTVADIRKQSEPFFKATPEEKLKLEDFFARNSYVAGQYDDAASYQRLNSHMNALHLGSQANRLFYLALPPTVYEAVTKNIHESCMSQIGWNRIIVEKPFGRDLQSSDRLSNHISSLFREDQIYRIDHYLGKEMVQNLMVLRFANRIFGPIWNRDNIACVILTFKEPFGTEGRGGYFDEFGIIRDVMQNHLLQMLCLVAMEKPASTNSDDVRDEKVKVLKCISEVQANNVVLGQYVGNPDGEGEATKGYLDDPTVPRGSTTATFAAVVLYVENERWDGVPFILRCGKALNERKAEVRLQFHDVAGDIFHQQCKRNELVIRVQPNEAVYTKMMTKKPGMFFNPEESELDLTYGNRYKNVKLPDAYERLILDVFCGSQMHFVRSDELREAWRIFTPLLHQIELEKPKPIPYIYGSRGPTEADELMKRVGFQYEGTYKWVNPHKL
For the next assay, the target named is T1, Streptokinase A (Streptococcus pyogenes serotype M1, UniProt P10520).
T1 sequence (P10520 whole entry): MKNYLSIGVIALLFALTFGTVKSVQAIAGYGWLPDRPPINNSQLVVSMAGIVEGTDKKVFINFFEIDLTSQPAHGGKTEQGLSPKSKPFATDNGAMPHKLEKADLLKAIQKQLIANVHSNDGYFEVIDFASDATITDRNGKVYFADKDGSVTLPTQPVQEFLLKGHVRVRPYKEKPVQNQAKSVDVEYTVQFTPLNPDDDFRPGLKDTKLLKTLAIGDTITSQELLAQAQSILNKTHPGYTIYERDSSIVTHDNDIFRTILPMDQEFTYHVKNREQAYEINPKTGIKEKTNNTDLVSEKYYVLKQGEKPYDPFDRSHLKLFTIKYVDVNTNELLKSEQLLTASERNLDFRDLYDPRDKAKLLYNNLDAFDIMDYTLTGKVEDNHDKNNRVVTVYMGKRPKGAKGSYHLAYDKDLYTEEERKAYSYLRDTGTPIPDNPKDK
The assay is described as follows: viability-normalized secreted streptokinase activity reduction – plasminogen activation absorbance, OD405, dose response (AID 1914).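 Note: secreted streptokinase activity via plasminogen activation per viability signal from cell pellet.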 In kind it is functional, Streptococcus pyogenes M1 GAS.

Assay [7] in a line: luciferase reporter signal suppression in cells – H4 neuroglioma cells, luminescence, dose response (AID 1990). In kind it is functional, cell-based.
Assay [8] has as its system BJ. Kind of assay: BJ-TERT-LT-ST fibroblast viability loss – cell-based, RAS-independent, luminescence, dose response (AID 1935).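 Note: BJ fibroblasts immortalized with TERT plus LT and ST oncogenes.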 In kind it is functional. The settings on record: Homo sapiens.
In assay [9] the test system is Streptococcus sp. 'group A'. The assay is described as follows: Streptococcus pyogenes SK(-)GAS viability under kanamycin – luminescence, BacTiterGlo, confirmation, counter-screen for streptokinase expression inhibitor project, dose response (AID 1900). Format: functional, organism-based. Background: Counterscreens check selectivity or assay interference.
The test system of assay [10] is BJ. The assay is described as follows: cells. Format: functional, cell-based. The settings on record: Homo sapiens.
Assay [11] addresses Heat shock protein HSP 90-alpha (Homo sapiens, UniProt P07900). Format: functional, organism-based.
Another assay has as its system INS1. The assay is described as follows: INS-1E survival protection against cytokine death – cell-based, luminescence, retest, dose response (AID 449756).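 Note: cell death triggered by IL-1 beta plus TNF-alpha plus IFN-gamma mixture; protective hits raise ATP signal compared with cytokine alone wells.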 In kind it is functional. The settings on record: Rattus norvegicus.
A further assay concerns HeLa. The assay is described as follows: Cytotoxicity counterscreen assay for transcriptional activators of heat shock protein 70 (Hsp70). [Related pubchem assays: 1203, 1252 ]. In kind it is functional. To be noted: Homo sapiens.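 Note: cells exposed to compound for 16 hours before readout.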
Assay [12] can be described thus: general cell-killing toxicity readout – plate reader, dry powder samples, cytotoxicity control for PAX8 inhibitor project, dose response (AID 743021). Format: functional, cell-based.
Assay [13] is described as follows: reduction of Shn3 3'UTR-driven luciferase in osteoblasts – cell-based, Clone20 osteoblasts, firefly luciferase, cherry-picked, dose response (AID 624132).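 Note: firefly luciferase luminescence from reporter carrying the Shn3 3'UTR in osteoblasts.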 In kind it is functional.
Assay [14] addresses Peroxisome proliferator-activated receptor gamma/Nuclear receptor coactivator 2 (Homo sapiens, UniProt P37231). The assay is described as follows: TR-FRET dose response biochemical High Throughput Screening assay for agonists of the steroid receptor coactivator 2 (SRC-2) recruitment by the peroxisome proliferator-activated receptor gamma (PPAR gamma): non-selective agonists. [Related pubchem assays: 1297, 1032 ]. Format: functional. For orientation: TR-FRET usually uses a lanthanide donor and a delayed reading to cut background.

The nature of assay [15]: non-specific 3'UTR reporter inhibition in Clone20-Shn3RL – cell-based, Renilla luciferase, cherry-picked, counter-screen for Shn3 inhibitor project, dose response (AID 624133). In kind it is functional.
For assay [16], the target named is Peroxisome proliferator-activated receptor gamma/Nuclear receptor coactivator 1 (Homo sapiens, UniProt P37231). The assay is described as follows: TR-FRET dose response biochemical High Throughput Screening assay for agonists of the steroid receptor coactivator 1 (SRC-1) recruitment by the peroxisome proliferator-activated receptor gamma (PPAR gamma): non-selective agonists. [Related pubchem assays (depositor defined):AID1300, AID1808, AID504735, AID631]. Format: protein assay.
Peroxisome proliferator-activated receptor gamma/Nuclear receptor coactivator 1, sequence (P37231 whole entry): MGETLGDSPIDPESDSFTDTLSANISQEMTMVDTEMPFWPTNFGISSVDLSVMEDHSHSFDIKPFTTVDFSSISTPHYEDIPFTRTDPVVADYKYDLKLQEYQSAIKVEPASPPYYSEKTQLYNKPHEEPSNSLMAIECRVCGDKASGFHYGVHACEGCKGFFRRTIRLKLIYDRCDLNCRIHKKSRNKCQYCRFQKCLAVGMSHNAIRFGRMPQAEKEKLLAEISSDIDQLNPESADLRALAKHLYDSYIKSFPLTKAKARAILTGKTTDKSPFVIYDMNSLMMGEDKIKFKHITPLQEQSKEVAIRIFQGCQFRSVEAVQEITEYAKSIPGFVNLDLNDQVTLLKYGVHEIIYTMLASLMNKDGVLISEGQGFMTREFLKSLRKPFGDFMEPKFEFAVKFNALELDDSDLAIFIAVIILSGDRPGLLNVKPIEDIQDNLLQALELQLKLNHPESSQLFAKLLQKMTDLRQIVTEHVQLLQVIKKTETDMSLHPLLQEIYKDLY
Peroxisome proliferator-activated receptor gamma/Nuclear receptor coactivator 1, sequence (Q15788 whole entry, further chain): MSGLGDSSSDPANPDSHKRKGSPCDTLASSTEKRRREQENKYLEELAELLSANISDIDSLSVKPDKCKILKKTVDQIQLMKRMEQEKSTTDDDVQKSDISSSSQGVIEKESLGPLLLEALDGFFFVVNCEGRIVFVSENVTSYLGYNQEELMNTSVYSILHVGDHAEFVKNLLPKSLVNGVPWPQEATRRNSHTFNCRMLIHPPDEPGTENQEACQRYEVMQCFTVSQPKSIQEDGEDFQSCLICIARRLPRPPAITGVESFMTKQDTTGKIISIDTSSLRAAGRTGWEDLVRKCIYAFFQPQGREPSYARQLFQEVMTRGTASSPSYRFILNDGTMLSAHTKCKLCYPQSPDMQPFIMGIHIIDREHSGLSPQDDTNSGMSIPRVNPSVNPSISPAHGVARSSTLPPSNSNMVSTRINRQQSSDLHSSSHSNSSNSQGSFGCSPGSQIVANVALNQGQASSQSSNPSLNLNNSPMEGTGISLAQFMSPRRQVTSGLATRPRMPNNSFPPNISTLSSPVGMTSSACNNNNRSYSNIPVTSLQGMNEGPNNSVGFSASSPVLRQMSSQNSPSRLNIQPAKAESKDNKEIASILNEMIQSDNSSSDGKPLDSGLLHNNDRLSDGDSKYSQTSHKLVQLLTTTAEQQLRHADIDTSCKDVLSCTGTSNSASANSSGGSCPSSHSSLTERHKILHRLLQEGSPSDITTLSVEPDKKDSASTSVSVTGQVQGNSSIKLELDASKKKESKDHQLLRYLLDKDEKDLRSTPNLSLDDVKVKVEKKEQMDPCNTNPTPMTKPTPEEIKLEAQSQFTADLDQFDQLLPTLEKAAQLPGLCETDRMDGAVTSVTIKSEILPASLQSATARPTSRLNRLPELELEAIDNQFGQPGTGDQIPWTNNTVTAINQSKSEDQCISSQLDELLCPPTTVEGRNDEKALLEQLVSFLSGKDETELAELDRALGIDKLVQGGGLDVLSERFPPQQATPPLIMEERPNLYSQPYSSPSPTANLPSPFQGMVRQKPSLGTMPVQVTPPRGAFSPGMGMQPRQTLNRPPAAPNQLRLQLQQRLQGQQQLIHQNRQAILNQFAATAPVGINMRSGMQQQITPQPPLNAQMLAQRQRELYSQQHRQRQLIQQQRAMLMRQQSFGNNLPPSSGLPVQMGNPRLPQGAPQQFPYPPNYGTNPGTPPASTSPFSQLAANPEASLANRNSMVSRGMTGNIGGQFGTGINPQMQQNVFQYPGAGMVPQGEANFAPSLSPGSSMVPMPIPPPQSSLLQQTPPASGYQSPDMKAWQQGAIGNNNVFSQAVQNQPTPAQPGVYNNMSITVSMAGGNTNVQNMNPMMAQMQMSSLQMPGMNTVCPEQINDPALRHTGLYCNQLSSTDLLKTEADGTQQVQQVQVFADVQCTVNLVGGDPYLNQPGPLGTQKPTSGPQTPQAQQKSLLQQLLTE

For another assay, the target named is Paired box protein Pax-8 (Homo sapiens, UniProt Q06710). Kind of assay: PAX8 transcriptional activity inhibition in RMG-I – RMG-I cells, luciferase, cherry-pick, dose response (AID 687027).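 Note: luciferase reporter driven by Pax8 target thyroperoxidase promoter measured by SteadyGlo luminescence.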 In kind it is functional, cell-based.
Paired box protein Pax-8, sequence (Q06710 whole entry): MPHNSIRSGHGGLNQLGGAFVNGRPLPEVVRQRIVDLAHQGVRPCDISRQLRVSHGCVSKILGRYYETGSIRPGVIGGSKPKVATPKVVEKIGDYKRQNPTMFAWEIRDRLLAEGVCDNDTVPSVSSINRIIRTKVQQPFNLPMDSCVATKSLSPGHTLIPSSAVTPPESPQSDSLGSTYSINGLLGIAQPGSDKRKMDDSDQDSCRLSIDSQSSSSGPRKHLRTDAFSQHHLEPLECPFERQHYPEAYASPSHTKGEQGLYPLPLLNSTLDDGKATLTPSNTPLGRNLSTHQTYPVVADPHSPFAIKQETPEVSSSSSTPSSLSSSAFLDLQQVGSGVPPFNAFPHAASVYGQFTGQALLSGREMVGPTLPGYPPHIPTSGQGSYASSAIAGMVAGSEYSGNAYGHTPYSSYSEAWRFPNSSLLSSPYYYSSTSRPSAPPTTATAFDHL
Assay [17] concerns the target Peroxisome proliferator-activated receptor gamma/Nuclear receptor coactivator 3 (Homo sapiens, UniProt P37231). Kind of assay: TR-FRET dose response biochemical High Throughput Screening assay for agonists of the steroid receptor coactivator 3 (SRC-3) recruitment by the peroxisome proliferator-activated receptor gamma (PPAR gamma): non-selective agonists. [Related pubchem assays: 1301 (Confirmation screen.), 1048 (Primary screen.)]. Format: functional.

Assay [18] in a line: loss of viability in HepG2 cells – cell-based, CellTiter-Glo, cherry-picked, cytotoxicity control for Shn3 inhibitor project, dose response (AID 624134). In kind it is functional. On the technique in general: In ATP-based viability assays light output follows the ATP content of the culture.
Assay [19] deals with T2, High affinity choline transporter 1 (Homo sapiens, UniProt Q9GZV3).
T2 sequence (Q9GZV3 whole entry): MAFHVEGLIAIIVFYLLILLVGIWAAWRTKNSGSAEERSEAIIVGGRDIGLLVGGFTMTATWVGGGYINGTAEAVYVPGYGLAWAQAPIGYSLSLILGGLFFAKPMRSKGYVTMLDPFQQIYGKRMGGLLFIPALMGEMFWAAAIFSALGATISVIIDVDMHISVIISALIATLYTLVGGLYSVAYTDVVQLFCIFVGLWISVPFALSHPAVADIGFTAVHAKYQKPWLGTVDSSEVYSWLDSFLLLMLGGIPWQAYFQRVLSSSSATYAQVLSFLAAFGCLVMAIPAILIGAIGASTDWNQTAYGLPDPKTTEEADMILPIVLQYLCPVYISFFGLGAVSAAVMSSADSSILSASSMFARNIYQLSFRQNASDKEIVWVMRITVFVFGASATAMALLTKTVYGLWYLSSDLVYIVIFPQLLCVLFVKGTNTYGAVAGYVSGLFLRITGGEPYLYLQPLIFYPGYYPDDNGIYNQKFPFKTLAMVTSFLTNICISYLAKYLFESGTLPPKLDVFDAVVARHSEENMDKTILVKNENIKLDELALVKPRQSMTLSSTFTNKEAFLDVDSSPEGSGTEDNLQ
The assay is described as follows: human choline transporter blockers, potency – cell-based, 5-point CRC, membrane potential dye, dose response (AID 504840). Format: functional.

Another assay concerns Escherichia coli. Kind of assay: microbe, parasite or virus in culture.

Peroxisome proliferator-activated receptor gamma/Nuclear receptor coactivator 2, sequence (P37231 whole entry): as the sequence (P37231 whole entry) above
Peroxisome proliferator-activated receptor gamma/Nuclear receptor coactivator 2, sequence (Q15596 whole entry, further chain): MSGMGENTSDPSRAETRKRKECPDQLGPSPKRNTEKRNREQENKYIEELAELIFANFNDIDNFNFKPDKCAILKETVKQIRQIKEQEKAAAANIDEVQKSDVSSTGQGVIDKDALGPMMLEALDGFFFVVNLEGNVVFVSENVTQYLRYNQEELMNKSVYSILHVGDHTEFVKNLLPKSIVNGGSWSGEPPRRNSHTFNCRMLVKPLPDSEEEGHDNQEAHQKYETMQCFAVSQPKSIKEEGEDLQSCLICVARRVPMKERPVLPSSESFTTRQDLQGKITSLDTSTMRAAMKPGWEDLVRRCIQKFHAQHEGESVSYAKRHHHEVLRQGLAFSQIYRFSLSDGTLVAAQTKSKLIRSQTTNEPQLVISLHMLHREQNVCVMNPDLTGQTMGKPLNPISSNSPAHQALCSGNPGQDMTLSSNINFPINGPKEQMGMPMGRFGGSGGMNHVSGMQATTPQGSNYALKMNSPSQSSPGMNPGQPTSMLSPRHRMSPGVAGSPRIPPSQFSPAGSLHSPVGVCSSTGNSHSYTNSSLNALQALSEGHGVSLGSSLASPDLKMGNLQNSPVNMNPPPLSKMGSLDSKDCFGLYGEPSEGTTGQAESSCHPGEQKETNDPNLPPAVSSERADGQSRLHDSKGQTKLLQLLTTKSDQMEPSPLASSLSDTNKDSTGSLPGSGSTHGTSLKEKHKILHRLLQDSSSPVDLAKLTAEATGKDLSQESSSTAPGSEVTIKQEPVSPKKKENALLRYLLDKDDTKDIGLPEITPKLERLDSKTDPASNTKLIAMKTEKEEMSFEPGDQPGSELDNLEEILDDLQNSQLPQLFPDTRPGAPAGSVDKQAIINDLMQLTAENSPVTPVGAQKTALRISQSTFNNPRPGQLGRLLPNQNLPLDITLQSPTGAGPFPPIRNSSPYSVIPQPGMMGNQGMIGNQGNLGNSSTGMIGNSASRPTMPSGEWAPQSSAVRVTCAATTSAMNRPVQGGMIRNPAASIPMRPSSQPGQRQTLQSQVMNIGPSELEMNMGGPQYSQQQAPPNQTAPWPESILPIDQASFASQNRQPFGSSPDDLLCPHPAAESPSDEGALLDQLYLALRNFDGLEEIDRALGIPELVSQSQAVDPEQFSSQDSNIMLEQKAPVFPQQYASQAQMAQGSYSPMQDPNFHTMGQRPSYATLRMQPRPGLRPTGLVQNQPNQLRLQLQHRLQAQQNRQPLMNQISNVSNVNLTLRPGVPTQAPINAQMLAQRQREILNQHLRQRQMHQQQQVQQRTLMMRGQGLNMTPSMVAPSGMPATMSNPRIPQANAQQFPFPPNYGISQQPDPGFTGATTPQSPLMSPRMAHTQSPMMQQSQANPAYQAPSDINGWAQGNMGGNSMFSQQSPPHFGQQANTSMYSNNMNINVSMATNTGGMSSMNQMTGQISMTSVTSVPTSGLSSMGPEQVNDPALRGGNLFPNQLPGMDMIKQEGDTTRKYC

What is called EC50 is the concentration that produces a half-maximal response. A word on the IC50: it is the concentration that inhibits the measured activity by half. One may read the AC50 as the concentration at which the activity in the assay is half-maximal. Consider `COc1cc(/C=C/C(=O)c2ccc([N+](=O)[O-])o2)ccc1O`, for which the EC50 in the assay on BJ [1] is > 150 µM (not active); in assay [2] it was 7.59 µM (active); in the assay with Streptococcus, 11.8 µM (active); in [4], 2.04 µM (inconclusive); in assay [5], 8.16 µM (active); on Streptokinase A, 12.8 µM (active). Further, the EC50 in assay [7] is > 30 µM (not active); with BJ [8], 1.09 µM (inconclusive); in assay [9] it was 3.09 µM (active); with BJ [10] it was > 150 µM (inconclusive). Also, the concentration for half-maximal inhibition (IC50) on Large T antigen is 8.65 µM (active); in assay [3] it was 28.5 µM (inactive); in [6], 60.4 µM (inactive). Besides, the AC50 in assay [11] was 4.28 µM (active); in the assay on INS1 it was 2.68 µM (active).
A word on the CC50: it is the concentration that lowers cell viability or growth by half. A high value points to lower toxicity to the cells. As for `O=c1c(Br)c(Br)cnn1-c1ccccc1`, in the assay on HeLa, the CC50 is recorded as > 11 µM (not active). In addition, the AC50 was 14.8 µM (active) in assay [12]; 1.82 µM (active) in assay [13]; 2.75 µM (active) in [15]; 8.26 µM (active) on Paired box protein Pax-8; 25.4 µM (active) in assay [18]. For the same compound, the figures for the EC50 in assay [14], in assay [16] and in [17] were > 79.4 µM (not active), > 79.4 µM (inactive) and > 79.4 µM (not active), respectively.
For `COC(=O)N/N=C/c1cc(C)n(-c2ccccc2)c1C`, in assay [19], the IC50 was 11.5 µM (active).
With `CC[C@H]1OC(=O)[C@H](C)[C@@H](O[C@H]2C[C@@](C)(OC)[C@@H](O)[C@H](C)O2)[C@H](C)[C@@H](O[C@@H]2O[C@H](C)C[C@H](N(C)C)[C@H]2O)[C@](C)(O)C[C@@H](C)CN(C)[C@H](C)[C@@H](O)[C@]1(C)O` [AZITHROMYCIN], the figures for the EC50 (in the assay on Streptococcus; in assay [9]) were 0.066 µM (active) and < 0.06 µM (active), respectively. Besides, the AC50 in the assay on Escherichia coli is 29.3 µM (active).
`Cc1ccc(C(=O)NC2CCCC(C)C2C)cc1S(=O)(=O)N1CCCCC1` (centres undefined): in [19], the IC50 is 9.55 µM (active).
